From patent US20090203064A1, “METHOD AND DEVICE FOR MONITORING PLATELET FUNCTION” (PLACOR INC., priority 2002, published 2009)

Test system: platelet function
Test: Platelet plug formation time of arterial blood from pigs receiving platelet inhibitors (wire-in-tube device)
Assay type: in vivo
Description: Pigs were placed on various platelet inhibitors and then the platelet function of the pigs was monitored. Twenty-five pigs received 300 mg aspirin daily for seven days. Ten pigs received 300 mg ticlopidine (an ADP inhibitor) daily. Ten pigs received a combination of 300 mg aspirin and 300 mg ticlopidine daily. Twenty microliters of blood were drawn into the lumen of the tube at a rate of 1.0 microliter per second. The wire was 0.016 inches in diameter and the inner diameter of the tube was 0.034 inches in diameter. Blood (20 μl) was delivered via a three-way flow divider (a Touhy-Borst Connector) into a TEFLON tube 2 inches long with a stainless steel wire […] in diameter inserted through the tube and extending about three-fourths of the length of the tube. The wire was held in place at the end of the tube. The tube was coupled to a Hamilton syringe pump and to a HP blood pressure transducer for measuring the pressure in the tube. The platelet plug formation time was determined as damping of the blood pressure signal.

SMILES | Mean platelet plug time (300 mg ticlopidine daily, after 3 days) [min] | Mean platelet plug time (300 mg ticlopidine daily, after 7 days) [min] | Mean platelet plug time (300 mg aspirin daily, after 3 days) | Mean platelet plug time (300 mg aspirin daily, after 7 days)
Clc1ccccc1CN1CCc2sccc2C1 [ticlopidine] | 5.67 | 6.21 | – | –
CC(=O)Oc1ccccc1C(=O)O [aspirin] | – | – | 3.9 (± 0.25) minutes | 4.6 (± 0.42) minutes
